From patent US6624140B1, “Synthetic peptides with antimicrobial and endotoxin neutralizing properties for management of the sepsis syndrome” (Academisch Ziekenhuis Bij de Universiteit van Amsterdam …, priority 1997, dated 2003)
No end group written: not given here.

How the values were obtained:
[1] = system: TNF-α production; experiment: TNF-α in whole blood ex vivo after pre-incubation of LPS with peptide; assay type: cell-based, human; conditions: 1 to 10 μg/ml pre-incubated with 1 ng/ml LPS, even at lowest concentration 1 μg/ml, 4 h at 37° C.
Procedure: FIG. 11. Effect of pre-incubation of E. coli 0111:B4 LPS with synthetic peptides or Polymyxin B on TNF-α levels in whole blood ex vivo. The indicated amounts of synthetic, control peptides or PmB were pre-incubated with E. coli 0111:B4 LPS at 1 ng/ml for […] at 23° C., added to whole blood containing heparin at 2 I.U/ml and the TNF-α concentrations determined after incubation for 4 h at 37° C. Each value is the mean of triplicate experiments. Controls only contained LPS.
In addition, the LPS-neutralizing activity of selected synthetic peptides of the invention were compared in a more complex environment of whole blood ex vivo to determine the effect of physiological concentrations of blood components such as plasma proteins, blood cells etc. on the detoxification efficacy. In pre-incubation experiments, concentrations of synthetic peptides, control peptide or PmB from 1 to 10 μg/ml were pre-incubated with 1 ng/ml E. coli 0111:B4 LPS in pyrogen-free saline for 30 min at 23° C., added to venous blood containing heparin at 2 I.U/ml as anti-coagulant and incubated for 4 h at 37° C. TNF-α concentrations were determined in appropriately diluted cell-free supernatants as described before.

[2] = Tolerability of i.p. peptide in mice; assay type: in vivo; conditions: 2.5 and 5 mg/Kg i.p.; 2 week observation; Swiss mice
[3] = Murine model of lethal endotoxemia; assay type: in vivo, mice; conditions: at 7 days; 5 mg/kg i.p. 20 min before Actinomycin D 800 μg/Kg plus LPS 5 μg/Kg; three experiments combined
Procedure: FIG. 13. Efficacy of synthetic peptide BP2 on survival in a murine model of lethal endotoxemia. Outbred femal Swiss-Webster mice of 7 to 8 weeks, weighing 28 to 30 g were treated with BP2 peptide by intraperitoneal (i.p) administration of a dose of 5 mg/Kg in pyrogen-free saline. Twenty minutes later the mice were challenged by i.p administration of the sensitizing agent Actinomycin D at 800 μg/Kg plus lethal concentrations of purified E. coli 0111:B4 LPS at 5 or 11 μg/Kg. Control groups only received Actinomycin D plus LPS. Survival was recorded at 24 h intervals during a 7 day period of observation. The indicated values are the combined results of three independent experiments.
The efficacy of the peptides of the invention in the protection of experimental animals against the toxic effects of LPS or live pathogenic bacteria was investigated with the use of murine models of lethal endotoxemia and peritonitis Laboratory mice, which are normally tolerant to high doses of endotoxin and require a lethal dose (LD100) of approximately 1 mg, may be sensitized with Actinomycin D to 10,000×lower amounts of endotoxin for lethality. […] The survival of the treated animals was recorded at 24 h intervals during a seven day period of observation and compared with the control groups. […]

[4] = Capture of TAG-labeled endotoxin by immobilized peptide (ECL); assay type: binding, Escherichia coli; conditions: biotinylated BP2 on streptavidin beads; TAG-labeled J5 LPS
Procedure: FIGS. 5A and 5B. Capture of labeled endotoxin by immobilized synthetic peptide. 2 ng of biotinylated synthetic peptide BP2, immobilized on 20 μg of streptavidin-coated supramagnetic polystyrene beads (Dynabeads M-280, Dynal A. S., Oslo, Norway) was incubated with the indicated amounts of chemiluminescent TAG-labeled E. coli J5 LPS for 20 min at 23° C. The amount of captured endotoxin, after a washing cycle with Phosphate buffer containing 0.1% (v/v) Triton X100, was determined by electochemiluminescence detection (ECL) using an Origen Analyser (Igen Inc., Rockville, Mass.). […] The values are the means of triplicate determinations corrected for non-specific binding.
Capture of the TAG labeled J5 LPS by immobilized synthetic peptide was quantitated by electrochemiluminescence detection subsequent to washing steps with phosphate buffer containing 0.1% (w/v) Triton X100 to remove excess unbound LPS. […] This confirms the high capacity of immobilized peptides of the invention for endotoxin in solution. […] LPS with high affinity and are universal lipid A binding ligands. The above mentioned microplate experiments were employed to determine the endotoxin binding activity and specificity of the synthetic peptides and formed the basis for the development of a novel highly sensitive endotoxin assay. […] The same degree of concentration-dependent inhibition was observed when various amounts of added endotoxin were assayed directly in plasma dilutions.

Substance	inhibition of TNF-α production [1]	tolerability [2]	survival [3]	molar excess of LPS up to which binding response is linear [4]	molar excess of endotoxin at saturation [4]	stochiometric ratio of peptide to LPS up to which capture is linear [4]
Ile-Lys-Ile-Ser-Gly-Lys-Trp-Lys-Ala-Gin-Lys-Arg-Phe-Leu-Lys-Met-Ser-Gly-(Cys) (IKISGKWKAQKRFLKMSGC; listed as Homo sapiens) [BPI(85-102), reference compound]	almost complete inhibition	–	–	–	–	–
GRLRKKWKAFKKFLKILAC [BP1]	almost complete inhibition	–	–	–	–	–
GKWKLFKKAFKKFLKILAC-OH [BP2, Gly-Lys-Trp-Lys-Leu-Phe-Lys-Lys-Ala-Phe-Lys-Lys-Phe-Leu-Lys-Ile-Leu-Ala-Cys]	almost complete inhibition	well tolerated with no adverse effects	75%	2 fold	8 fold	1 to 2
